In the assay the target is T1, Phosphodiesterase (Bos taurus, UniProt F1MPW5).
T1 sequence (F1MPW5 whole entry): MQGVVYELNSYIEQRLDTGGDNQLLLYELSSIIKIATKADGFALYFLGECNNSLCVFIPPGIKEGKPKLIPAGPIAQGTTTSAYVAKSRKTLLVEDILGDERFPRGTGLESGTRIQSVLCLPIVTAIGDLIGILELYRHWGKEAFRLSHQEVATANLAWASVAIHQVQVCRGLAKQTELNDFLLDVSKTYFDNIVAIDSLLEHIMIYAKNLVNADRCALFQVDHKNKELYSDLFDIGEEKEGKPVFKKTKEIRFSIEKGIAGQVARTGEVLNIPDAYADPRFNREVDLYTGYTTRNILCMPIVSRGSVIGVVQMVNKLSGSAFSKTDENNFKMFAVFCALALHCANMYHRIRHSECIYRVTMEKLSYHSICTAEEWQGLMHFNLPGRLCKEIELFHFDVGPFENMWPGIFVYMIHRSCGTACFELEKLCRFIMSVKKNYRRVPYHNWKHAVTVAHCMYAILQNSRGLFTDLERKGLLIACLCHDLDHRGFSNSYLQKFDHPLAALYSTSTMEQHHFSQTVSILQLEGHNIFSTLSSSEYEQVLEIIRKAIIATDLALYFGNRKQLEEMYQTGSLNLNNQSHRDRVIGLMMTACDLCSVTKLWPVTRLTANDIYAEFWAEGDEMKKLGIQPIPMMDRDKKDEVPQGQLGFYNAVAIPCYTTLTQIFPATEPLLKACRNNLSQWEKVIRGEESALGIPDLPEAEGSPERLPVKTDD
Nature of the assay: Inhibition Assay: The PDE assay was performed according to a modified method referred to a report of Kotera et al. (Kotera et al., Biochem. Pharmacol., vol. 60, pp. 1333-1341, 2000), by the radiolabeled nucleotide method.Specifically, the measurements of the inhibitory activities were carried out in the following method.(Method) The test compounds were dissolved in dimethyl sulfoxide (DMSO). 2 uL of the compound solution was added to 96 well plate, and the reaction mixture (20 uL of PDE enzyme solution in 50 mM Tris-HCl, pH 8.0, 40 uL of the assay buffer (50 mM Tris-HCl, pH 8.0, 2 mM MgCl2, 0.07% 2-mercaptoethanol, and 0.825 mg/mL bovine serum albumin), and 20 uL of 1 mg/mL snake venom in 50 mM Tris-HCl, pH8.0) was added to the 96 well plate. The enzyme reaction was started by adding and mixing with substrate solution of 20 L containing approximate 35 nM 3H-cAMP in 50 mM Tris-HCl, pH 8.0. The final concentration of cAMP in the reaction mixtures was 7 nM.
Turning to `Cc1nc2ccccc2nc1-c1cc2nc(N3CC[C@@H](F)C3)cc(NCC(C)(C)O)n2n1`, the IC50 is 0.32 nM.

Consider `Cc1ccc2nc(-c3cc4nc(N5CCCC5)cc(NC5CCOCC5)n4n3)c(C)nc2c1`, for which the 50% inhibitory concentration (IC50) was determined as 0.46 nM. The figure for `Cc1nc2ccccc2nc1-c1cc2nc(N3CCCC3)cc(NCCC#N)n2n1` is 0.052 nM; for `Cc1nc2ccc(F)cc2nc1-c1cc2nc(N3CC[C@@H](F)C3)cc(N[C@H]3CC[C@](C)(O)CC3)n2n1` it is 0.09 nM.

Turning to `Cc1nc2ccccc2nc1-c1cc2nc(C3=CCCC3)cc(NC3CCOCC3)n2n1`, the half-inhibitory concentration (IC50) is 0.22 nM. On to `Cc1nc2ccc(F)cc2nc1-c1cc2nc(N3CCCC3)cc(N[C@H]3CCCC[C@@H]3O)n2n1`, for which the IC50 came out at 0.035 nM. The figure for `Cc1ccc2nc(C)c(-c3cc4nc(N5CCC[C@H]5CO)cc(N(C5CCOCC5)C5CC5)n4n3)nc2c1` is 0.0068 nM; for `Cc1ccc2nc(C)c(-c3cc4nc(N5CCCC5)cc(NCCN(C)C)n4n3)nc2c1` it is 0.17 nM. For the compound `CO[C@H]1CC[C@H](Nc2cc(N3CCCC3)nc3cc(-c4nc5cc(C(F)(F)F)ccc5nc4C)nn23)CC1`, the IC50 was found to be 0.045 nM. As for `Cc1nc2ccccc2nc1-c1cc2nc(N3CCCC3)cc(NC3CCOCC3)n2n1`, the IC50 came to 0.11 nM.

Regarding `Cc1nc(C)c(-c2cc3nc(N4CCCC4)cc(N(C)C4CCOCC4)n3n2)nc1C`, the 50% inhibitory concentration (IC50) is 0.48 nM. As to `Cc1nc2ccccc2nc1-c1cc2nc(N3CCCC3)cc(OC3CCOCC3)n2n1`, the half-inhibitory concentration (IC50) was 0.38 nM. With `Cc1nc2ccc(F)cc2nc1-c1cc2nc(N3CC[C@@H](F)C3)cc(NCC(C)(C)O)n2n1` the figure was 0.09 nM; with `Cc1nc2ccccc2nc1-c1cc2nc(N3CCCC3)cc(N3CCCC3)n2n1`, 0.57 nM; with `CC(=O)N1CCC(Nc2cc(N3CCCC3)nc3cc(-c4nc5cc(C)ccc5nc4C)nn23)CC1`, 0.044 nM.

Turning to `Cc1nc2ccccc2nc1-c1cc2nc(N3CCC[C@H]3CO)cc(N[C@@H]3CCCOC3)n2n1`, the half-inhibitory concentration (IC50) turned out to be 0.39 nM. The figure for `Cc1nc2ccccc2nc1-c1cc2nc(N3CC[C@@H](F)C3)cc(NC3CCOCC3)n2n1` is 0.83 nM; for `Cc1nc2c(C)cccc2nc1-c1cc2nc(N3CCCC3)cc(NC3CCOCC3)n2n1` it is 0.78 nM; for `Cc1nc2ccccc2nc1-c1cc2nc(N3CCCC3)cc(CC3CCOCC3)n2n1` it is 0.36 nM. Consider `Cc1nc2c(nc1-c1cc3nc(N4CCCC4)cc(NC4CCC(F)(F)CC4)n3n1)CCCC2`, for which the half-maximal inhibitory concentration (IC50) stood at 0.23 nM. Turning to `Cc1ccc2nc(C)c(-c3cc4nc(N5CC(O)C5)cc(NC5CCOCC5)n4n3)nc2c1`, the half-inhibitory concentration (IC50) is 1.08 nM.

Consider `C[C@]1(O)CC[C@H](Nc2cc(N3CC[C@@H](F)C3)nc3cc(-c4nc5ccccc5nc4C(F)(F)F)nn23)CC1`, for which the IC50 stood at 0.18 nM. With `Cc1nc2ccccc2nc1-c1cc2nc(N3CCCC3)cc(N(C)C3CCOCC3)n2n1` the figure was 0.0045 nM. The figure for `CCCN1CCC(Nc2cc(N3CCCC3)nc3cc(-c4nc5cc(C)ccc5nc4C)nn23)CC1` is 0.15 nM; for `Cc1nc2ccccc2nc1-c1cc2nc(N3CC=CC3)cc(NC3CCOCC3)n2n1` it is 0.2 nM. With `Cc1ccc2nc(C)c(-c3cc4nc(N5CCCC5)cc(N[C@@H]5CCS(=O)(=O)C5)n4n3)nc2c1` the figure was 0.0085 nM. As to `Cc1nc2ccccc2nc1-c1cc2nc(N3CC[C@@H](F)C3)cc(NC3COC3)n2n1`, the IC50 came to 0.65 nM. As for `Cc1nc2ccccc2nc1-c1cc2nc(N3CCCC3)cc(NC[C@H](O)C(F)(F)F)n2n1`, the half-maximal inhibitory concentration (IC50) is 0.13 nM. With `Cc1nc2ccccc2nc1-c1cc2nc(N3CC[C@@H](F)C3)cc(NC3CC3)n2n1` the figure was 0.87 nM. With `CCc1nc2ccccc2nc1-c1cc2nc(N3CC[C@@H](F)C3)cc(N[C@H]3CC[C@H](OC)CC3)n2n1` the figure was 0.39 nM.
